Data: patent publication US8114880B2, “Piperidine or piperazine substituted tetrahydro-naphthalene-1-carboxylic acid MTP inhibiting compounds” (Janssen Pharmaceutica N.V., priority 2006, dated 2012)

target: MTP (Homo sapiens, UniProt P55157); assay: MTP assay (triglyceride transfer from donor to acceptor vesicles); assay type: biochemical; settings: MTP activity, percent triglyceride transfer from donor to acceptor vesicles, 37° C.
Experimental: MTP activity was measured using an assay similar to one described by J. R. Wetterau and D. B. Zilversmit in Chemistry and Physics of Lipids, 38, 205-222 (1985). To prepare the donor and acceptor vesicles, the appropriate lipids in chloroform were put into a glass test tube and dried under a stream of nitrogen. A buffer containing 15 mM Tris-HCl pH 7.5, 1 mM EDTA, 40 mM NaCl, 0.02% NaN3 (assay buffer) was added to the dried lipid. The mixture was vortexed briefly and the lipids were then allowed to hydrate for 20 minutes on ice. Vesicles were then prepared by bath sonication (Branson 2200) at room temperature for maximum 15 minutes. Butylated hydroxytoluene was included in all vesicle preparations at a concentration of 0.1%. The lipid transfer assay mixture contained donor vesicles (40 nmol phosphatidylcholine, 7.5 mol % of cardiolipin and 0.25 mol % glycerol tri [1-^14C]-oleate), acceptor vesicles (240 nmol phosphatidylcholine) and 5 mg BSA in a total volume of 675 μl in a 1.5 ml microcentrifuge tube. Test compounds were added dissolved in DMSO (0.13% final concentration). After 5 minutes of pre-incubation at 37° C., the reaction was started by the addition of MTP in 100 μl dialysis buffer. The reaction was stopped by the addition of 400 μl DEAE-52 cellulose pre-equilibrated in 15 mM Tris-HCl pH 7.5, 1 mM EDTA, 0.02% NaN3 (1:1, vol/vol). The mixture was agitated for 4 minutes and centrifuged for 2 minutes at maximum speed in an Eppendorf centrifuge (4° C.) to pellet the DEAE-52-bound donor vesicles. An aliquot of the supernatant containing the acceptor liposomes was counted and the [^14C]-counts were used to calculate the percent triglyceride transfer from donor to acceptor vesicles.

Sequence of MTP (P55157 19-894, species assumed): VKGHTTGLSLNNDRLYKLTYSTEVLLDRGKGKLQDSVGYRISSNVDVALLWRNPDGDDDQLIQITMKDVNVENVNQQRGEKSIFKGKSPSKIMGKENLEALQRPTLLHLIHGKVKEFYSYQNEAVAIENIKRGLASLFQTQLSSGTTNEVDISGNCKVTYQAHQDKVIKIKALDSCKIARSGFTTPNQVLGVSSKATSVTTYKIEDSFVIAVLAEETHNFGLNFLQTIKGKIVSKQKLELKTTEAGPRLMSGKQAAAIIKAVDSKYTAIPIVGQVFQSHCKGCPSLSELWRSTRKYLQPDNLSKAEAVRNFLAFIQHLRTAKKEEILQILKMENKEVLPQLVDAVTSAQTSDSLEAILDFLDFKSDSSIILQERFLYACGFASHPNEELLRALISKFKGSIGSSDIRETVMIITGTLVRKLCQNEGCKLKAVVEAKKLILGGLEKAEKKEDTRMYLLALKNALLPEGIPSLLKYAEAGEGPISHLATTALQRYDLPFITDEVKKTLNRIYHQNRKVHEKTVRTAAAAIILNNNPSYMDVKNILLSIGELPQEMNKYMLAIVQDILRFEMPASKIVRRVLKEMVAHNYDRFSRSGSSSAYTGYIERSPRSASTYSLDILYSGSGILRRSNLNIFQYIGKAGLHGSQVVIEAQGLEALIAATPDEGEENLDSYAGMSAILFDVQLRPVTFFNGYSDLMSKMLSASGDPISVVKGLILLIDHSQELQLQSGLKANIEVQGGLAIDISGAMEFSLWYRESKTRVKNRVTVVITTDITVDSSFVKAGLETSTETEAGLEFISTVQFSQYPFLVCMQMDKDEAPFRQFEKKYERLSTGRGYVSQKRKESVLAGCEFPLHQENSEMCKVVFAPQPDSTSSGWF
Sequence of MTP (P07237 18-508 partner, species assumed): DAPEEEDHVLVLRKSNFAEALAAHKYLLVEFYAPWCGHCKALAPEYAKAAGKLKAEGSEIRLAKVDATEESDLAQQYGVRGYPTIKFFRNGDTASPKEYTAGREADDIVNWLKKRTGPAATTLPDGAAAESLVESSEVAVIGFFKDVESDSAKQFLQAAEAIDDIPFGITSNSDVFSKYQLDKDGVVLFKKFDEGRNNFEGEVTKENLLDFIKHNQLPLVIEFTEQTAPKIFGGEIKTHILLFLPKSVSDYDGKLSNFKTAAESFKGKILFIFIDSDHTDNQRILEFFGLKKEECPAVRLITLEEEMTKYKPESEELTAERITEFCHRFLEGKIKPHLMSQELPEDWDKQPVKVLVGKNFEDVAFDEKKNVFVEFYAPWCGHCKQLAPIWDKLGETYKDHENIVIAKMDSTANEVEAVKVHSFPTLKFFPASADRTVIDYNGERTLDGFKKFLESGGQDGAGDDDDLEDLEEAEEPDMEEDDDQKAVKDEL

IC50 | SMILES
1090 nM | CCOC(=O)[C@H](NC(=O)[C@@]1(c2ccccc2)CC[C@H](C(=O)N2CCC(NC(=O)c3cccn(C)c3=O)CC2)c2ccccc21)C(C)C [Co. No. 140]
1860 nM | CCOC(=O)[C@H](CC(C)C)NC(=O)[C@@]1(c2ccccc2)CC[C@H](C(=O)N2CCC(NC(=O)c3cccn(C)c3=O)CC2)c2ccccc21 [Co. No. 141]
> 10000 nM | CCOC(=O)[C@H](CO)NC(=O)[C@@]1(c2ccccc2)CC[C@H](C(=O)N2CCC(NC(=O)c3cccn(C)c3=O)CC2)c2ccccc21 [Co. No. 142]
1920 nM | CCOC(=O)C[C@H](NC(=O)[C@@]1(c2ccccc2)CC[C@H](C(=O)N2CCC(NC(=O)c3cccn(C)c3=O)CC2)c2ccccc21)C(=O)OCC [Co. No. 143]
3830 nM | CCOC(=O)C1CCCCN1C(=O)[C@@]1(c2ccccc2)CC[C@H](C(=O)N2CCC(NC(=O)c3cccn(C)c3=O)CC2)c2ccccc21 (some centres unmarked) [Co. No. 144]
5380 nM | COC(=O)CC[C@H](NC(=O)[C@@]1(c2ccccc2)CC[C@H](C(=O)N2CCC(NC(=O)c3cccn(C)c3=O)CC2)c2ccccc21)C(=O)OC [Co. No. 145]
776 nM | CCOC(=O)CC[C@H](NC(=O)[C@@]1(c2ccccc2)CC[C@H](C(=O)N2CCC(NC(=O)c3cccn(C)c3=O)CC2)c2ccccc21)C(=O)OCC [Co. No. 146]
> 10000 nM | CCOC(=O)[C@@H]1CCCN1C(=O)[C@@]1(c2ccccc2)CC[C@H](C(=O)N2CCC(NC(=O)c3cccn(C)c3=O)CC2)c2ccccc21 [Co. No. 149]
> 10000 nM | CCOC(=O)[C@H]1CCCN1C(=O)[C@@]1(c2ccccc2)CC[C@H](C(=O)N2CCC(NC(=O)c3cccn(C)c3=O)CC2)c2ccccc21 [Co. No. 150]
> 10000 nM | COC(=O)[C@@H]1C[C@@H](O)CN1C(=O)[C@@]1(c2ccccc2)CC[C@H](C(=O)N2CCC(NC(=O)c3cccn(C)c3=O)CC2)c2ccccc21 [Co. No. 151]
1630 nM | CCOC(=O)[C@H](NC(=O)[C@@]1(c2ccccc2)CC[C@H](C(=O)N2CCC(NC(=O)c3cccn(C)c3=O)CC2)c2ccccc21)c1ccccc1 [Co. No. 152]
1110 nM | CCOC(=O)[C@@H](NC(=O)[C@@]1(c2ccccc2)CC[C@H](C(=O)N2CCC(NC(=O)c3cccn(C)c3=O)CC2)c2ccccc21)c1ccccc1 [Co. No. 153]
1850 nM | CCOC(=O)[C@H](Cc1ccccc1)NC(=O)[C@@]1(c2ccccc2)CC[C@H](C(=O)N2CCC(NC(=O)c3cccn(C)c3=O)CC2)c2ccccc21 [Co. No. 154]
731 nM | CCOC(=O)[C@@H](Cc1ccccc1)NC(=O)[C@@]1(c2ccccc2)CC[C@H](C(=O)N2CCC(NC(=O)c3cccn(C)c3=O)CC2)c2ccccc21 [Co. No. 155]
1530 nM | CCOC(=O)C(Cc1ccc(O)cc1)NC(=O)[C@@]1(c2ccccc2)CC[C@H](C(=O)N2CCC(NC(=O)c3cccn(C)c3=O)CC2)c2ccccc21 (some centres unmarked) [Co. No. 156]
1650 nM | CCOC(=O)C(Cc1c[nH]c2ccccc12)NC(=O)[C@@]1(c2ccccc2)CC[C@H](C(=O)N2CCC(NC(=O)c3cccn(C)c3=O)CC2)c2ccccc21 (some centres unmarked) [Co. No. 157]
847 nM | COC(=O)CNC(=O)[C@@]1(c2ccccc2)CC[C@H](C(=O)N2CCC(NC(=O)c3cccn(C)c3=O)CC2)c2ccccc21 [Co. No. 158]
366 nM | Cn1cccc(C(=O)NC2CCN(C(=O)C3CC[C@@](C(=O)NCC(=O)OC(C)(C)C)(c4ccccc4)c4ccccc43)CC2)c1=O (some centres unmarked) [Co. No. 160]
458 nM | C[C@H](NC(=O)[C@@]1(c2ccccc2)CC[C@H](C(=O)N2CCC(NC(=O)c3cccn(C)c3=O)CC2)c2ccccc21)C(=O)OC(C)(C)C [Co. No. 161]
1790 nM | C[C@@H](NC(=O)[C@@]1(c2ccccc2)CC[C@H](C(=O)N2CCC(NC(=O)c3cccn(C)c3=O)CC2)c2ccccc21)C(=O)OC(C)(C)C [Co. No. 162]
1450 nM | CN(CC(=O)OC(C)(C)C)C(=O)[C@@]1(c2ccccc2)CC[C@H](C(=O)N2CCC(NC(=O)c3cccn(C)c3=O)CC2)c2ccccc21 [Co. No. 163]
506 nM | CC(C)[C@H](NC(=O)[C@@]1(c2ccccc2)CC[C@H](C(=O)N2CCC(NC(=O)c3cccn(C)c3=O)CC2)c2ccccc21)C(=O)OC(C)(C)C [Co. No. 165]
755 nM | CC(C)[C@@H](NC(=O)[C@@]1(c2ccccc2)CC[C@H](C(=O)N2CCC(NC(=O)c3cccn(C)c3=O)CC2)c2ccccc21)C(=O)OC(C)(C)C [Co. No. 166]
793 nM | CC(C)C[C@H](NC(=O)[C@@]1(c2ccccc2)CC[C@H](C(=O)N2CCC(NC(=O)c3cccn(C)c3=O)CC2)c2ccccc21)C(=O)OC(C)(C)C [Co. No. 167]

IC50 | SMILES
697 nM | Cn1cccc(C(=O)NC2CCN(C(=O)[C@H]3CC[C@@](C(=O)N[C@@H](COC(C)(C)C)C(=O)OC(C)(C)C)(c4ccccc4)c4ccccc43)CC2)c1=O [Co. No. 168]
1750 nM | Cn1cccc(C(=O)NC2CCN(C(=O)[C@H]3CC[C@@](C(=O)N[C@@H](CC(=O)OC(C)(C)C)C(=O)OC(C)(C)C)(c4ccccc4)c4ccccc43)CC2)c1=O [Co. No. 169]
> 10000 nM | Cn1cccc(C(=O)NC2CCN(C(=O)[C@H]3CC[C@@](C(=O)N[C@@H](CCC(N)=O)C(=O)OC(C)(C)C)(c4ccccc4)c4ccccc43)CC2)c1=O [Co. No. 170]
418 nM | Cn1cccc(C(=O)NC2CCN(C(=O)[C@H]3CC[C@@](C(=O)N[C@@H](CCC(=O)OC(C)(C)C)C(=O)OC(C)(C)C)(c4ccccc4)c4ccccc43)CC2)c1=O [Co. No. 171]
3300 nM | Cn1cccc(C(=O)NC2CCN(C(=O)[C@H]3CC[C@@](C(=O)N4CCC[C@H]4C(=O)OC(C)(C)C)(c4ccccc4)c4ccccc43)CC2)c1=O [Co. No. 173]
2730 nM | Cn1cccc(C(=O)NC2CCN(C(=O)[C@H]3CC[C@@](C(=O)N4CCC[C@@H]4C(=O)OC(C)(C)C)(c4ccccc4)c4ccccc43)CC2)c1=O [Co. No. 174]
3720 nM | Cn1cccc(C(=O)NC2CCN(C(=O)[C@H]3CC[C@@](C(=O)N4C[C@H](OC(C)(C)C)C[C@H]4C(=O)OC(C)(C)C)(c4ccccc4)c4ccccc43)CC2)c1=O [Co. No. 175]
1880 nM | Cn1cccc(C(=O)NC2CCN(C(=O)[C@H]3CC[C@@](C(=O)N[C@@H](C(=O)OC(C)(C)C)c4ccccc4)(c4ccccc4)c4ccccc43)CC2)c1=O [Co. No. 176]
1620 nM | Cn1cccc(C(=O)NC2CCN(C(=O)[C@H]3CC[C@@](C(=O)N[C@H](C(=O)OC(C)(C)C)c4ccccc4)(c4ccccc4)c4ccccc43)CC2)c1=O [Co. No. 177]
1490 nM | Cn1cccc(C(=O)NC2CCN(C(=O)[C@H]3CC[C@@](C(=O)N[C@@H](Cc4ccccc4)C(=O)OC(C)(C)C)(c4ccccc4)c4ccccc43)CC2)c1=O [Co. No. 178]
1320 nM | Cn1cccc(C(=O)NC2CCN(C(=O)[C@H]3CC[C@@](C(=O)N[C@H](Cc4ccccc4)C(=O)OC(C)(C)C)(c4ccccc4)c4ccccc43)CC2)c1=O [Co. No. 179]
2670 nM | Cn1cccc(C(=O)NC2CCN(C(=O)[C@H]3CC[C@@](C(=O)N[C@@H](Cc4ccc(O)cc4)C(=O)OC(C)(C)C)(c4ccccc4)c4ccccc43)CC2)c1=O [Co. No. 180]
> 10000 nM | Cn1cccc(C(=O)NC2CCN(C(=O)[C@H]3CC[C@@](C(=O)N[C@@H](CC(N)=O)C(=O)OC(C)(C)C)(c4ccccc4)c4ccccc43)CC2)c1=O [Co. No. 181]
> 10000 nM | Cn1cccc(C(=O)NC2CCN(C(=O)[C@H]3CC[C@@](C(=O)NCC(=O)O)(c4ccccc4)c4ccccc43)CC2)c1=O [Co. No. 182]
> 10000 nM | C[C@H](NC(=O)[C@@]1(c2ccccc2)CC[C@H](C(=O)N2CCC(NC(=O)c3cccn(C)c3=O)CC2)c2ccccc21)C(=O)O [Co. No. 183]
> 10000 nM | C[C@@H](NC(=O)[C@@]1(c2ccccc2)CC[C@H](C(=O)N2CCC(NC(=O)c3cccn(C)c3=O)CC2)c2ccccc21)C(=O)O [Co. No. 184]
> 10000 nM | CN(CC(=O)O)C(=O)[C@@]1(c2ccccc2)CC[C@H](C(=O)N2CCC(NC(=O)c3cccn(C)c3=O)CC2)c2ccccc21 [Co. No. 185]
> 10000 nM | Cn1cccc(C(=O)NC2CCN(C(=O)[C@H]3CC[C@@](C(=O)NCCC(=O)O)(c4ccccc4)c4ccccc43)CC2)c1=O [Co. No. 186]
> 10000 nM | CC(C)[C@H](NC(=O)[C@@]1(c2ccccc2)CC[C@H](C(=O)N2CCC(NC(=O)c3cccn(C)c3=O)CC2)c2ccccc21)C(=O)O [Co. No. 187]
> 10000 nM | CC(C)[C@@H](NC(=O)[C@@]1(c2ccccc2)CC[C@H](C(=O)N2CCC(NC(=O)c3cccn(C)c3=O)CC2)c2ccccc21)C(=O)O [Co. No. 188]
> 10000 nM | CC(C)C[C@H](NC(=O)[C@@]1(c2ccccc2)CC[C@H](C(=O)N2CCC(NC(=O)c3cccn(C)c3=O)CC2)c2ccccc21)C(=O)O [Co. No. 189]
> 10000 nM | Cn1cccc(C(=O)NC2CCN(C(=O)[C@H]3CC[C@@](C(=O)NC(CCCCN)C(=O)O)(c4ccccc4)c4ccccc43)CC2)c1=O (some centres unmarked) [Co. No. 190]
> 10000 nM | Cn1cccc(C(=O)NC2CCN(C(=O)[C@H]3CC[C@@](C(=O)N4CCC[C@@H]4C(=O)O)(c4ccccc4)c4ccccc43)CC2)c1=O [Co. No. 191]
